Measured values reported in patent publication US9518282B2, “Method for utilizing monoterpene glycosyltransferase” (SUNTORY HOLDINGS LIMITED, priority 2010, dated 2016).

Columns and labels:
[1] = molecular target: T1, UGT85A3 (Arabidopsis thaliana, UniProt Q9LMF1); assay: Glycosylation activity of purified UGT85A3 on sugar acceptor substrates, LC-MS; format: biochemical; design: made in house; host or cells: E. coli BL21(DE3); conditions: for glycosylation activity of UGT85A3 on the sugar acceptor (product detected by LC-MS): 2 mM UDP-glucose, 1.5 mM sugar acceptor substrate, pH 7.5, 30° C., 1 hour
T1 sequence (Q9LMF1 1-488): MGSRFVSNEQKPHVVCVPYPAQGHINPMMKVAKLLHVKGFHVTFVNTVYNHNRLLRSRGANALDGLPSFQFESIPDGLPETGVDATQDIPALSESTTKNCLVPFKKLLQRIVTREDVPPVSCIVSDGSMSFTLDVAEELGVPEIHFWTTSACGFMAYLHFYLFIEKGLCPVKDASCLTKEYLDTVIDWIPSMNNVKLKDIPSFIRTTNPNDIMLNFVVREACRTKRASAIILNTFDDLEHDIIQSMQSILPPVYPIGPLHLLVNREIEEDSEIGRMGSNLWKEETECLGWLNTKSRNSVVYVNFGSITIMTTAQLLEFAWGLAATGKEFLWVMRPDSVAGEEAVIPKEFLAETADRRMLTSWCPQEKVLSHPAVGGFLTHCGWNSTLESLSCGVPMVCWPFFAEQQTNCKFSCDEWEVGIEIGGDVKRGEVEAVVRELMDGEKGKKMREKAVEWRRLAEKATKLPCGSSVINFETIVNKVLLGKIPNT
Protocol: Standard enzyme reaction conditions are as follows. […] LC Conditions Column: CAPCELL PAK C18-UG120 (2.0 mm I.D.×150 mm) Mobile phase: A: water (containing 0.05% formic acid), B: acetonitrile Gradient: linear concentration gradient of B from 15% to 90% over 15 minutes Flow rate: 0.2 ml per minute Column oven: 40° C. MS Conditions ESI (negative mode) SIM mode: (m/z 315, 338, 361, 363, 331, 354, 377, 429, etc.)

[2] = molecular target: T1, UGT85A3; conditions: 8-hydroxygeraniol as sugar acceptor; fraction of the UDP-glucose level
Protocol: (§1) Standard enzyme reaction conditions are as follows.
(§2) The enzyme reaction solution (5 μl) was analyzed by LC-MS under the following conditions.

[3] = molecular target: T2, UGT85A1 (Arabidopsis thaliana, UniProt Q9SK82); assay: Glycosylation activity of UGT85A1 on sugar acceptors, LC-MS; format: biochemical; conditions: for relative activity of UGT85A1 on sugar acceptors (in words, FIG. 12): measured per unit reaction time (5 minutes); for glycosylated product of UGT85A1 reaction detected (FIG. 11): same manner as Example 4, LC-MS
T2 construct: made in house; host or cells: E. coli
T2 sequence (Q9SK82 1-489): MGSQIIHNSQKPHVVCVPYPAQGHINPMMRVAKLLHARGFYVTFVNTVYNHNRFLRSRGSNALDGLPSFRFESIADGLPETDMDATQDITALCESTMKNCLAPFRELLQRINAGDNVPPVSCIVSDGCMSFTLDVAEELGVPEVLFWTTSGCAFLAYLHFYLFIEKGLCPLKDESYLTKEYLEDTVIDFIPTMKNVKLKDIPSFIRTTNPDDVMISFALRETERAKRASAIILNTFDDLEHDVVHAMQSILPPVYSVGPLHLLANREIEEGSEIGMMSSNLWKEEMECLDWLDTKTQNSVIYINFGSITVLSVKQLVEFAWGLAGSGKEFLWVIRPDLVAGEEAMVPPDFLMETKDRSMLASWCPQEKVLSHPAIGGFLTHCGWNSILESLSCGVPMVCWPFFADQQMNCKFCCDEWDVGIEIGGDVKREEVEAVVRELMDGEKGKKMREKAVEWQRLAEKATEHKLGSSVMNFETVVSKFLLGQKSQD
Protocol: as §1, §2
In the same manner as shown in Example 4, linalool, 8-hydroxylinalool, geraniol and 8-hydroxygeraniol were used as sugar acceptors for activity measurement.

Row | Compound | glycosylation activity of UGT85A3 on the sugar acceptor (product detected by LC-MS) [1] | relative activity of UGT85A1 on sugar acceptors (in words, FIG. 12) [3] | glycosylated product of UGT85A1 reaction detected (FIG. 11) [3] | other results
1 | O=c1cc(-c2ccc(O)cc2)oc2cc(O)cc(O)c12 [Apigenin] | no glycosylation activity | – | – | –
2 | UDP-gluconic acid | – | – | – | product level with the sugar donor relative to that with UDP-glucose (FIG. 8) [2]: less than 1/10
3 | O=C1C[C@@H](c2ccc(O)cc2)Oc2cc(O)cc(O)c21 [Naringenin] | no glycosylation activity | – | – | –
4 | C/C(=C\CC/C(C)=C/CO)CO [8-hydroxygeraniol, 8-Hydroxygeraniol] | a peak with a molecular weight suggesting addition of one glucose molecule was obtained | higher activity | glycosylated products were detected | activity of UGT85A3 on the 8-hydroxylated form compared with geraniol / linalool (FIG. 7) ([1]; UDP-glucose as sugar donor, product yields compared): higher activity; sugar acceptor selectivity of UGT85A1 (relative activity) ([3]; highest activity set to 100%, FIG. 12): 100%
5 | CC(C)=CCC/C(C)=C/CO [geraniol] | – | higher selectivity for geraniol than linalool | glycosylated products were detected | –
6 | O=c1ccc2cc(O)c(O)cc2o1 [Esculetin] | no glycosylation activity | – | – | –
7 | CC(C)=CCCC(C)CCO (stereo not shown) [citronellol] | glycosylation activity | – | – | –
8 | O=c1c(O)c(-c2ccc(O)c(O)c2)oc2cc(O)cc(O)c12 [Quercetin] | no glycosylation activity | – | – | –

Further lines, with some results ahead:

Row | glycosylation activity of UGT85A3 on the sugar acceptor (product detected by LC-MS) [1] | relative activity of UGT85A1 on sugar acceptors (in words, FIG. 12) [3] | glycosylated product of UGT85A1 reaction detected (FIG. 11) [3] | Compound | other results
9 | glycosylation activity | – | – | C=CC(C)(O)CCC=C(C)CCC=C(C)C (stereo not shown) [nerolidol] | –
10 | – | very low relative activity | glycosylated products were detected | C=CC(C)(O)CCC=C(C)C (stereo not shown) [linalool] | –
